Measured values: ChEMBL document CHEMBL1201862, “PubChem BioAssay data set” (2004)
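Tested at 5 concentrations; 48 h exposure; 96-well plates; endpoints linearly interpolated, else capped at highest concentration. GI50 = concentration required for 50% inhibition of growth.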 Activity calls are given as the source filed them. Cut-off read from the data, not from the text of the source: active = GI50 up to about 1.1 µM and inactive = higher.

How the values were obtained:
Test in all cases: NCI tumour cell line growth inhibition, 48 h
HOP-18 = tested on: HOP-18
KM-20L2 = tested on: KM-20L2
M19-MEL = tested on: M19-MEL
DMS-114 = tested on: DMS-114
SNB-78 = tested on: SNB-78
RXF 631 = tested on: RXF 631
XF498 = tested on: XF498
BT-549 = tested on: BT-549
T47D = tested on: T47D

Measured: GI50

Cc1ccc(S(=O)(=O)NC2(C=O)CCCC3CCCCC32)cc1 (stereo unspecified)
inactive: HOP-18 > 100 µM | KM-20L2 > 100 µM | M19-MEL > 100 µM | DMS-114 > 100 µM | SNB-78 > 100 µM | RXF 631 > 100 µM

CC1=C(C(=O)Nc2cccc(C(F)(F)F)c2)C(c2ccc(O)cc2)C(C(=O)Nc2cccc(C(F)(F)F)c2)=C(C)N1
inactive: KM-20L2 18.3 µM | M19-MEL 16.4 µM | DMS-114 14.8 µM | SNB-78 23 µM | XF498 2.61 µM | RXF 631 14.8 µM

Cc1ccccc1-c1c(N)nc(NC#N)nc1C(=O)Nc1ccccc1
inactive: HOP-18 > 100 µM | KM-20L2 > 100 µM | M19-MEL > 100 µM | DMS-114 > 100 µM | SNB-78 > 100 µM | RXF 631 > 100 µM

CCC(CC)NC1=C(NC(C)=O)C(=O)c2ccccc2C1=O
inactive: KM-20L2 > 50 µM | M19-MEL > 50 µM | SNB-78 > 50 µM | XF498 > 50 µM

C=CCCC(C)N(C(=O)OC(C)(C)C)S(=O)(=O)c1ccc(C)cc1 (stereo unspecified)
inactive: KM-20L2 > 100 µM | SNB-78 > 100 µM | XF498 > 100 µM

CCN(CC)CCNc1ccc(C)c2sc3ccc(O)cc3c(=O)c12
active: M19-MEL 1.1 µM | DMS-114 0.982 µM
inactive: HOP-18 1.34 µM | KM-20L2 2.14 µM | SNB-78 1.76 µM | XF498 1.2 µM

CC1OC(=O)C(O)=C1O (stereo unspecified)
inactive: HOP-18 > 100 µM | KM-20L2 > 100 µM | M19-MEL > 100 µM | SNB-78 > 100 µM | XF498 > 100 µM

CCOC(=O)/C(=C/c1ccc(N(C)C)cc1)N(CC)CC
inactive: KM-20L2 > 100 µM | M19-MEL 24.6 µM | DMS-114 54 µM | SNB-78 69.3 µM | XF498 > 100 µM

COC(=O)c1ccc(/C=C/S(=O)(=O)c2ccccc2)cc1
inactive: KM-20L2 > 100 µM | M19-MEL > 100 µM | DMS-114 > 100 µM | SNB-78 > 100 µM | XF498 > 100 µM | RXF 631 > 100 µM

Cc1ccc(C2[C@H]3C(=O)N(c4ccc(Cc5ccc(N6C(=O)[C@@H]7ON(c8ccccc8)C(c8ccc(C)cc8)[C@@H]7C6=O)cc5)cc4)C(=O)[C@H]3ON2c2ccccc2)cc1 (stereo partly specified)
inactive: HOP-18 > 100 µM | KM-20L2 > 100 µM | M19-MEL > 100 µM | DMS-114 > 100 µM | XF498 > 100 µM

O=C1NC(=O)C(C(=O)C(=O)Nc2cc(Cl)ccc2Cl)C(=O)N1
inactive: KM-20L2 > 100 µM | M19-MEL > 100 µM | DMS-114 > 100 µM | SNB-78 > 100 µM | RXF 631 > 100 µM

O=C(Nc1ccccc1SC(/C=C/NNC1=NN=C(c2ccccc2)C(c2ccccc2)N1)c1ccccc1)c1ccc(Cl)cc1Cl (stereo unspecified)
inactive: KM-20L2 > 100 µM | M19-MEL 44.3 µM | DMS-114 45.1 µM | SNB-78 87.5 µM | XF498 > 10 µM

CC1(C)N=C(N)N=C(N)N1c1ccc(CCCCc2ccc(S(=O)(=O)F)cc2Cl)c(Cl)c1
active: DMS-114 0.458 µM
inactive: HOP-18 53.7 µM | BT-549 5.26 µM | KM-20L2 6.76 µM | T47D 10.5 µM | SNB-78 11.6 µM | XF498 1.49 µM

c1cc2c(ncc3cscc32)s1
inactive: M19-MEL > 100 µM | DMS-114 > 100 µM | SNB-78 > 100 µM | XF498 > 100 µM | RXF 631 > 100 µM

NC(=O)C(=O)N/N=C(\CC1(O)C(=O)Nc2ccccc21)c1ccc2ccccc2c1 (stereo unspecified)
inactive: HOP-18 46.3 µM | M19-MEL 25.2 µM | DMS-114 21.3 µM | SNB-78 72.9 µM | XF498 30.5 µM

O=C(Nc1nc2ncn(CCO)c2c(=O)[nH]1)c1ccccc1
inactive: HOP-18 > 100 µM | KM-20L2 > 100 µM | M19-MEL > 100 µM | DMS-114 > 100 µM | SNB-78 > 100 µM

CC(=O)OC12C=CC(=O)N1c1ccccc1C(=O)O2 (stereo unspecified)
inactive: HOP-18 > 100 µM | KM-20L2 > 100 µM | M19-MEL > 100 µM | SNB-78 32.1 µM | XF498 > 100 µM

O=C1c2ccccc2C(=O)N1CCN(CCN1C(=O)c2ccccc2C1=O)Cn1cccn1
inactive: KM-20L2 > 100 µM | M19-MEL 69.8 µM | DMS-114 19.5 µM | SNB-78 > 100 µM | XF498 > 100 µM | RXF 631 29 µM

CCc1c(-c2coc(CC/C(C)=C/c3ccccc3)n2)oc(OC)c(C)c1=O
inactive: HOP-18 > 57.3 µM | KM-20L2 28.5 µM | M19-MEL 31.8 µM | SNB-78 53.3 µM | XF498 17.7 µM
active: DMS-114 < 0.01 µM

CCC1(CN(C)C)CC/C(=C\c2ccc3c(c2)OCO3)C1=O (stereo unspecified)
inactive: HOP-18 > 100 µM | KM-20L2 47.2 µM | M19-MEL > 100 µM | SNB-78 > 100 µM | RXF 631 > 100 µM

NC(=O)c1[nH]nc(C2OC(CO)C(O)C2O)c1O (stereo unspecified)
inactive: HOP-18 43 µM | BT-549 182 µM | KM-20L2 2.76 µM | T47D 5.55 µM | M19-MEL 13.2 µM | DMS-114 19.9 µM | SNB-78 37.7 µM | XF498 71.9 µM

Cc1cc(NS(=O)(=O)c2ccc(Nc3c4ccccc4nc4c(C(=O)NCCN(C)C)cccc34)cc2)no1
active: DMS-114 0.713 µM
inactive: KM-20L2 26.4 µM | M19-MEL 12.5 µM | SNB-78 12.7 µM | XF498 18.3 µM

C=CC1(C)CCC(C(C)C(=O)C(C=C(C)C)OC(C)=O)C12C(=O)Oc1ccccc1C2=O (stereo unspecified)
inactive: HOP-18 95.3 µM | KM-20L2 51.3 µM | M19-MEL 26.2 µM | DMS-114 26 µM | SNB-78 79.4 µM | XF498 54 µM

COC(=O)C1[C@@H](C(=O)OC)C12C=Cc1ccccc1C=C2 (stereo partly specified)
inactive: KM-20L2 > 100 µM | M19-MEL > 100 µM | DMS-114 > 100 µM | SNB-78 > 100 µM | XF498 51.6 µM

COC(=O)C1C(=O)O[C@@H](c2ccc(OC)cc2OC)C1C(=O)OC (stereo partly specified)
inactive: HOP-18 > 100 µM | KM-20L2 > 100 µM | M19-MEL > 100 µM | DMS-114 > 100 µM | SNB-78 > 100 µM | XF498 > 100 µM
